Consider three molecules from patent EP1400530A1, “Suppression of immune response via inhibition of cathepsin S” (MASSACHUSETTS INSTITUTE OF TECHNOLOGY, priority 1996, dated 1997).

In one test the test system is HOM2 cells. As to the kind of experiment: 35S-methionine/cysteine pulse/chase of HOM2 cells, immunoprecipitation of class II with Tu36, SDS-PAGE (Ii processing and SDS-stable peptide-loaded αβ dimers).
In test [1] the target is cathepsin D (Homo sapiens, UniProt P07339). To be noted: Alteri et al. 1993; cited from earlier work.
Chain of cathepsin D (Homo sapiens, UniProt P07339) (P07339 65-412): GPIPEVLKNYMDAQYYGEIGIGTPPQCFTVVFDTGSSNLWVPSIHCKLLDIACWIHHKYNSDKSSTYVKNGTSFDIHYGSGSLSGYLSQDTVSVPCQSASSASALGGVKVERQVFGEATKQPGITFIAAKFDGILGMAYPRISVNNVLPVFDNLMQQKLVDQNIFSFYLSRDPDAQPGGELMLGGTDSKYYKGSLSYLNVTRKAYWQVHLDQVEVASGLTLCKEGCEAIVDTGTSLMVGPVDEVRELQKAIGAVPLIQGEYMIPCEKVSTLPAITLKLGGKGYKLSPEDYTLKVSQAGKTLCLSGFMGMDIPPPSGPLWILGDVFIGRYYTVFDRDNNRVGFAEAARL
Test [2] has as its system cathepsin D. Nature of the test: Inhibition of cathepsin D activity in human monocytes. Format: cell-based.
The next test deals with cathepsin S (Homo sapiens, UniProt P25774). As to the kind of experiment: Active site labeling of cysteine proteases with Cbz-[125I]-Tyr-Ala-CN2 in HOM2 cells after preincubation with inhibitor. The settings on record: LHVS concentration of 1 nM, 37°C 1 hour prior to labeling.
Chain of cathepsin S (P25774 115-331): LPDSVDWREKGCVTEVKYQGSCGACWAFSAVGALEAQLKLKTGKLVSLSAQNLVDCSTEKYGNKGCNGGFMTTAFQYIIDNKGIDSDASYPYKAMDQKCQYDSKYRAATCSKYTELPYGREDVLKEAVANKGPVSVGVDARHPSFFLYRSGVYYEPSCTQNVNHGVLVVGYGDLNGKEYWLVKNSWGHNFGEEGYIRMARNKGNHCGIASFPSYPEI
In test [3] the test system is Peripheral blood mononuclear cells (PBMC's). It counts as cell-based, human. To be noted: 3-5 days.
The next test concerns the target cathepsin B (Homo sapiens, UniProt P07858). Nature of the test: Active site labeling of cysteine proteases with Cbz-[125I]-Tyr-Ala-CN2 in HOM2 cells after preincubation with inhibitor. To be noted: inhibitor concentration of 5 nM.
For a further test, the target named is T1, cathepsin H (Homo sapiens, UniProt P09668).
T1 sequence (P09668 98-335): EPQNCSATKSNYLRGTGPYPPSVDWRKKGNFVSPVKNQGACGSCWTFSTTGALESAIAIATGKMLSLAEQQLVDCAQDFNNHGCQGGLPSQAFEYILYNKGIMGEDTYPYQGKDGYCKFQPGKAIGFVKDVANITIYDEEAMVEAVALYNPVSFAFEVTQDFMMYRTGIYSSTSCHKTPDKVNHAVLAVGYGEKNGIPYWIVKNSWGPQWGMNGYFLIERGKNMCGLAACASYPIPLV
As to the kind of experiment: Inhibition of purified human cathepsin H. To be noted: concentration not given. Format: biochemical.

As to `CCOC(=O)[C@H]1O[C@@H]1C(=O)N[C@@H](CC(C)C)C(=O)NCCC(C)C` (relative stereo) [E64D], the SDS-stable dimer formation entry with HOM2 cells (E64D, concentration not stated in Example 2) is listed as “decrease”.
In the case of `CC(C)[C@H](NC(=O)[C@H](Cc1ccccc1)C[C@H](O)[C@H](Cc1ccccc1)NC(=O)OC(C)(C)C)C(=O)N[C@@H](Cc1ccccc1)C(=O)N1CCOCC1` [CGP 53437], the “inhibits cathepsin D” value at cathepsin D [1] is listed as “nanomolar range”. The figures for the “inhibits cathepsin D activity in human monocytes” value in the test on cathepsin D [2] (5 µM) and with cathepsin D [2] (50 µM) were 75% and 90%, respectively. Besides, the SDS-stable complexes entry in the test with HOM2 cells (5 µM or 50 µM CGP 53437, chase 5 hours) is reported as “nor did it produce a decrease”.
For the molecule `CC(C)C[C@H](NC(=O)N1CCOCC1)C(=O)N[C@H](/C=C/S(=O)(=O)c1ccccc1)CCc1ccccc1` [LHVS, morpholinurea-leucine-homophenylalanine-vinylsulfone phenyl], the “labeling of cathepsin S” value on cathepsin S is “effectively inhibited”. Further, in test [3], the “attenuation of 3H-thymidine uptake response to tetanus toxoid” value is given as “approximately 60%”. In addition, the “labeling of cathepsin B” value on cathepsin B is “decreased, although some activity remained”. Further, the “formation of SDS-stable complexes (peptide loading)” value in the test on HOM2 cells (1 nM and 5 nM LHVS, chase 5 hours) was “marked decrease”. Moreover, the “inhibition of purified human cathepsin H” value against cathepsin H is on record as “not inhibited”.
